Test system: K12877-001-R-J1-PDC complex spheroid viability
Experiment: Anticancer human tumor K12877-001-R-J1-PDC patient-derived lung adenocarcinoma cell line growth inhibition [RAS]
Conditions: for IC50: curve of first compound; for viability, T/C: stronger effect = lower value
Method in brief: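 Agents were tested in combination matrices in half-log decrements from a top concentration at or near clinical Cmax (10 microM if undetermined). Targets were multi-cell spheroids of tumour lines plus HUVEC and MSC stromal cells.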

[1] = second compound 0.0316 µM, first compound 0.00316 µM
[2] = second compound 0.0316 µM, first compound 0.01 µM
[3] = second compound 0.0316 µM, first compound 0.0316 µM
[4] = second compound 0.0316 µM, first compound 0.1 µM
[5] = second compound 0.0316 µM, first compound 0.316 µM
[6] = second compound 0.0316 µM, first compound 1 µM
[7] = second compound 0.1 µM, first compound 0.00316 µM
[8] = second compound 0.1 µM, first compound 0.01 µM
[9] = second compound 0.1 µM, first compound 0.0316 µM
[10] = second compound 0.1 µM, first compound 0.1 µM
[11] = second compound 0.1 µM, first compound 0.316 µM
[12] = second compound 0.1 µM, first compound 1 µM
[13] = second compound 0.316 µM, first compound 0.00316 µM
[14] = second compound 0.316 µM, first compound 0.01 µM
[15] = second compound 0.316 µM, first compound 0.0316 µM
[16] = second compound 0.316 µM, first compound 0.1 µM
[17] = second compound 0.316 µM, first compound 0.316 µM
[18] = second compound 0.316 µM, first compound 1 µM
[19] = second compound 1 µM, first compound 0.00316 µM
[20] = second compound 1 µM, first compound 0.01 µM
[21] = second compound 1 µM, first compound 0.0316 µM
[22] = second compound 1 µM, first compound 0.1 µM
[23] = second compound 1 µM, first compound 0.316 µM
[24] = second compound 1 µM, first compound 1 µM
[25] = second compound 0.00316 µM, first compound 0.00316 µM
[26] = second compound 0.00316 µM, first compound 0.01 µM
[27] = second compound 0.00316 µM, first compound 0.0316 µM
[28] = second compound 0.00316 µM, first compound 0.1 µM
[29] = second compound 0.00316 µM, first compound 0.316 µM
[30] = second compound 0.00316 µM, first compound 1 µM
[31] = second compound 0.01 µM, first compound 0.00316 µM
[32] = second compound 0.01 µM, first compound 0.01 µM
[33] = second compound 0.01 µM, first compound 0.0316 µM
[34] = second compound 0.01 µM, first compound 0.1 µM
[35] = second compound 0.01 µM, first compound 0.316 µM
[36] = second compound 0.01 µM, first compound 1 µM
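Also: spheroids exposed to agents for one week before readout.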
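For viability, T/C in this document: tumour cells co-cultured with HUVEC and mesenchymal stem cells in spheroids.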

SMILES: C=CC(=O)N1CCN(c2nc(OCC3CCCN3C)nc3c(F)c(-c4nc(N)cc(C)c4C(F)(F)F)c(Cl)cc23)C(C)C1 (stereo not drawn) + C#Cc1c(F)ccc2cc(O)cc(-c3ncc4c(N5CC6CCC(C5)N6)nc(OCC56CCCN5CC(F)C6)nc4c3F)c12
- IC50 (second compound 0.0316 µM): > 1000 nM
- IC50 (second compound 0.1 µM): > 1000 nM
- IC50 (second compound 0.316 µM): > 1000 nM
- IC50 (second compound 1 µM): > 1000 nM
- IC50 (second compound 3.16 µM): > 1000 nM
- IC50 (second compound 10 µM): > 1000 nM
- viability, T/C [1]: 97.7%
- viability, T/C [2]: 87.3%
- viability, T/C [3]: 90.9%
- viability, T/C [4]: 79.4%
- viability, T/C [5]: 85.3%
- viability, T/C [6]: 72.8%
- viability, T/C [7]: 99.2%
- viability, T/C [8]: 84.5%
- viability, T/C [9]: 83.7%
- viability, T/C [10]: 78.3%
- viability, T/C [11]: 83.8%
- viability, T/C [12]: 75.5%
- viability, T/C [13]: 95.8%
- viability, T/C [14]: 86.2%
- viability, T/C [15]: 83.4%
- viability, T/C [16]: 89.7%
- viability, T/C [17]: 75%
- viability, T/C [18]: 81.9%
- viability, T/C [19]: 101%
- viability, T/C [20]: 85.3%
- viability, T/C [21]: 77.5%
- viability, T/C [22]: 89.8%
- viability, T/C [23]: 78.2%
- viability, T/C [24]: 77.8%
- viability, T/C (second compound 3.16 µM, first compound 0.00316 µM): 106%
- viability, T/C (second compound 3.16 µM, first compound 0.01 µM): 92.2%
- viability, T/C (second compound 3.16 µM, first compound 0.0316 µM): 80.7%
- viability, T/C (second compound 3.16 µM, first compound 0.1 µM): 83.1%
- viability, T/C (second compound 3.16 µM, first compound 0.316 µM): 85%
- viability, T/C (second compound 3.16 µM, first compound 1 µM): 73.9%
- viability, T/C (second compound 10 µM, first compound 0.00316 µM): 94.4%
- viability, T/C (second compound 10 µM, first compound 0.01 µM): 87.3%
- viability, T/C (second compound 10 µM, first compound 0.0316 µM): 79.1%
- viability, T/C (second compound 10 µM, first compound 0.1 µM): 79.8%
- viability, T/C (second compound 10 µM, first compound 0.316 µM): 78.2%
- viability, T/C (second compound 10 µM, first compound 1 µM): 83.2%

SMILES: CC1(C)CCC(Nc2ncc(C(F)(F)F)c(-c3c[nH]c4c(P(C)(C)=O)c(C#N)ccc34)n2)CN1 (stereo not drawn) + C#Cc1c(F)ccc2cc(O)cc(-c3ncc4c(N5CC6CCC(C5)N6)nc(OCC56CCCN5CC(F)C6)nc4c3F)c12
- IC50 (second compound 0.0316 µM): 55.5 nM
- IC50 (second compound 0.1 µM): 34.6 nM
- IC50 (second compound 0.316 µM): 55.9 nM
- IC50 (second compound 1 µM): 50.3 nM
- IC50 (second compound 3.16 µM): 84.3 nM
- IC50 (second compound 10 µM): 187 nM
- viability, T/C (second compound 0.0316 µM, first compound 0.000949 µM): 93.6%
- viability, T/C (second compound 0.0316 µM, first compound 0.003 µM): 83.7%
- viability, T/C (second compound 0.0316 µM, first compound 0.00949 µM): 89.6%
- viability, T/C (second compound 0.0316 µM, first compound 0.03 µM): 65.2%
- viability, T/C (second compound 0.0316 µM, first compound 0.0949 µM): 37.2%
- viability, T/C (second compound 0.0316 µM, first compound 0.3 µM): 32%
- viability, T/C (second compound 0.1 µM, first compound 0.000949 µM): 97.6%
- viability, T/C (second compound 0.1 µM, first compound 0.003 µM): 100%
- viability, T/C (second compound 0.1 µM, first compound 0.00949 µM): 83.8%
- viability, T/C (second compound 0.1 µM, first compound 0.03 µM): 52.3%
- viability, T/C (second compound 0.1 µM, first compound 0.0949 µM): 34.5%
- viability, T/C (second compound 0.1 µM, first compound 0.3 µM): 29.1%
- viability, T/C (second compound 0.316 µM, first compound 0.000949 µM): 89.9%
- viability, T/C (second compound 0.316 µM, first compound 0.003 µM): 92%
- viability, T/C (second compound 0.316 µM, first compound 0.00949 µM): 87%
- viability, T/C (second compound 0.316 µM, first compound 0.03 µM): 63.3%
- viability, T/C (second compound 0.316 µM, first compound 0.0949 µM): 39%
- viability, T/C (second compound 0.316 µM, first compound 0.3 µM): 32.9%
- viability, T/C (second compound 1 µM, first compound 0.000949 µM): 96.9%
- viability, T/C (second compound 1 µM, first compound 0.003 µM): 87.5%
- viability, T/C (second compound 1 µM, first compound 0.00949 µM): 104%
- viability, T/C (second compound 1 µM, first compound 0.03 µM): 60.8%
- viability, T/C (second compound 1 µM, first compound 0.0949 µM): 40%
- viability, T/C (second compound 1 µM, first compound 0.3 µM): 33.6%
- viability, T/C (second compound 3.16 µM, first compound 0.000949 µM): 100%
- viability, T/C (second compound 3.16 µM, first compound 0.003 µM): 93.6%
- viability, T/C (second compound 3.16 µM, first compound 0.00949 µM): 86.6%
- viability, T/C (second compound 3.16 µM, first compound 0.03 µM): 82.5%
- viability, T/C (second compound 3.16 µM, first compound 0.0949 µM): 45.6%
- viability, T/C (second compound 3.16 µM, first compound 0.3 µM): 39.9%
- viability, T/C (second compound 10 µM, first compound 0.000949 µM): 99.8%
- viability, T/C (second compound 10 µM, first compound 0.003 µM): 88.7%
- viability, T/C (second compound 10 µM, first compound 0.00949 µM): 73.7%
- viability, T/C (second compound 10 µM, first compound 0.03 µM): 72.9%
- viability, T/C (second compound 10 µM, first compound 0.0949 µM): 56.9%
- viability, T/C (second compound 10 µM, first compound 0.3 µM): 44.2%

SMILES: C=CC(=O)Nc1cc(Nc2nccc(-c3cn(C)c4ccccc34)n2)c(OC)cc1N(C)CCN(C)C + C=CC(=O)N1CCN(c2nc(OCC3CCCN3C)nc3c(F)c(-c4nc(N)cc(C)c4C(F)(F)F)c(Cl)cc23)C(C)C1
- IC50 (second compound 0.00316 µM): > 1000 nM
- IC50 (second compound 0.01 µM): > 1000 nM
- IC50 (second compound 0.0316 µM): > 1000 nM
- IC50 (second compound 0.1 µM): > 1000 nM
- IC50 (second compound 0.316 µM): > 1000 nM
- IC50 (second compound 1 µM): > 1000 nM
- viability, T/C [25]: 106%
- viability, T/C [26]: 98.8%
- viability, T/C [27]: 98.7%
- viability, T/C [28]: 100%
- viability, T/C [29]: 101%
- viability, T/C [30]: 83.8%
- viability, T/C [31]: 104%
- viability, T/C [32]: 95%
- viability, T/C [33]: 103%
- viability, T/C [34]: 96.2%
- viability, T/C [35]: 92.7%
- viability, T/C [36]: 82.6%
- viability, T/C [1]: 95.8%
- viability, T/C [2]: 93.1%
- viability, T/C [3]: 88.3%
- viability, T/C [4]: 90.7%
- viability, T/C [5]: 79.6%
- viability, T/C [6]: 80.1%
- viability, T/C [7]: 93.6%
- viability, T/C [8]: 88.1%
- viability, T/C [9]: 88.9%
- viability, T/C [10]: 88.1%
- viability, T/C [11]: 76.2%
- viability, T/C [12]: 70.8%
- viability, T/C [13]: 90.8%
- viability, T/C [14]: 94.1%
- viability, T/C [15]: 82.3%
- viability, T/C [16]: 89.1%
- viability, T/C [17]: 79.8%
- viability, T/C [18]: 72.6%
- viability, T/C [19]: 86.5%
- viability, T/C [20]: 91.8%
- viability, T/C [21]: 83.6%
- viability, T/C [22]: 76.9%
- viability, T/C [23]: 76.6%
- viability, T/C [24]: 73.5%

SMILES: O=C(c1ccc(F)c(F)c1Nc1ccc(I)cc1F)N1CC(O)([C@@H]2CCCCN2)C1 + C=CC(=O)N1CCN(c2nc(OCC3CCCN3C)nc3c(F)c(-c4nc(N)cc(C)c4C(F)(F)F)c(Cl)cc23)C(C)C1
- IC50 (second compound 0.00316 µM): > 1000 nM
- IC50 (second compound 0.01 µM): > 1000 nM
- IC50 (second compound 0.0316 µM): > 1000 nM
- IC50 (second compound 0.1 µM): > 1000 nM
- IC50 (second compound 0.316 µM): > 1000 nM
- IC50 (second compound 1 µM): > 1000 nM
- viability, T/C [25]: 104%
- viability, T/C [26]: 103%
- viability, T/C [27]: 89.5%
- viability, T/C [28]: 91.7%
- viability, T/C [29]: 72.2%
- viability, T/C [30]: 54.5%
- viability, T/C [31]: 94.5%
- viability, T/C [32]: 95%
- viability, T/C [33]: 78.9%
- viability, T/C [34]: 90.7%
- viability, T/C [35]: 68.1%
- viability, T/C [36]: 58.3%
- viability, T/C [1]: 93%
- viability, T/C [2]: 85.2%
- viability, T/C [3]: 77.5%
- viability, T/C [4]: 87.6%
- viability, T/C [5]: 71.1%
- viability, T/C [6]: 66.4%
- viability, T/C [7]: 85.2%
- viability, T/C [8]: 89.3%
- viability, T/C [9]: 83.7%
- viability, T/C [10]: 82.2%
- viability, T/C [11]: 72.4%
- viability, T/C [12]: 55.4%
- viability, T/C [13]: 85.7%
- viability, T/C [14]: 83.3%
- viability, T/C [15]: 84.7%
- viability, T/C [16]: 89.4%
- viability, T/C [17]: 72.4%
- viability, T/C [18]: 59%
- viability, T/C [19]: 79.5%
- viability, T/C [20]: 79.3%
- viability, T/C [21]: 78.1%
- viability, T/C [22]: 103%
- viability, T/C [23]: 75.3%
- viability, T/C [24]: 57.2%

— PubChem BioAssay AID2060894 (Molecular Pharmacology Branch, DTP, NCI, 2025)
